Source: PMC8956739, “A synthetic lipopeptide targeting top-priority multidrug-resistant Gram-negative pathogens” (Nature Communications, 2022)
Values after ≈ are worked out from the molar mass of the structure shown. Where two headings read alike, the source gives them in different places. Residues, ends and D or L forms follow the SMILES beside them.

Tests used:
[1] = system: P. aeruginosa FADDI-PA025; assay type: cell-based, Pseudomonas aeruginosa; details: FADDI-PA025
In short: (§1)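 Each strain is tested in cation-adjusted Mueller–Hinton broth using the micro-dilution technique, and growth inhibition gives the MIC.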

[2] = system: P. aeruginosa ATCC 27853; assay type: cell-based, Pseudomonas aeruginosa; details: ATCC 27853
In short: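 Susceptibility: microdilution MIC in CaMHB.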

[3] = system: P. aeruginosa FADDI-PA038; assay type: cell-based, Pseudomonas aeruginosa; details: FADDI-PA038
In short: as §1

[4] = system: MDR clinical isolates of P. aeruginosa (n = 213, 55 carbapenem-resistant); assay type: cell-based, Pseudomonas aeruginosa
In short: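 Cation-adjusted Mueller–Hinton broth was used with the broth microdilution method to set MICs against clinical isolates. A separate run on P. aeruginosa ATCC 27853 added 10% Survanta® (v/v, 2.5 mg/mL phospholipids) to gauge lung-surfactant binding of polymyxins.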

[5] = system: K. pneumoniae FADDI-KP065; assay type: cell-based, Klebsiella pneumoniae; details: FADDI-KP065
In short: as §1

[6] = system: K. pneumoniae FADDI-KP032; assay type: cell-based, Klebsiella pneumoniae; details: FADDI-KP032
In short: as §1

[7] = Cell viability after 24 h treatment; assay type: cell-based, human; details: human, KCNJ16 knockout HK-2 cells (kidney proximal tubular), Cell viability, KCNJ16 KO, KCNJ16 knockout HK-2 cells, 24 h, Fig. 6b
Procedure: (§2) Fig. 6 Transcriptomic changes in human kidney proximal tubular HK-2 cells following treatments with polymyxin B (PMB), colistin (COL), F287, F319, and F365. a Numbers of differentially expressed genes. Distinctive intersections are color-coded. b Cell viability difference (two-tailed Student’s t-test, n = 4 biologically independent cells, Benjamini–Hochberg adjusted P-values) between wild-type HK-2 and KCNJ16 knockout (KO) cells following 24 h treatment with lipopeptides. n.s., not significant; ^*adjusted P < 0.05, ^**adjusted P < 0.01, ^***adjusted P < 0.001. Data are shown as mean ± s.d. and individual data points. c Extracted transcriptional regulatory network from Signor database with 1-step neighbor constraints (enlarged for detail). Source data are provided as a Source Data file.

[8] = in vitro; assay type: cell-based, human; details: human, wild-type HK-2 cells (kidney proximal tubular), Cell viability, WT
Procedure: as §2

[9] = MDR clinical isolates of (n = 213, 55 carbapenem-resistant)
[10] = Rep1, replicate 1, read-out: Cell viability, KCNJ16 KO, Rep1
[11] = Rep2, replicate 2, read-out: Cell viability, KCNJ16 KO, Rep2
[12] = Rep3, replicate 3, read-out: Cell viability, KCNJ16 KO, Rep3
[13] = Rep4, replicate 4, read-out: Cell viability, KCNJ16 KO, Rep4

Structure (SMILES) | MIC P. aeruginosa FADDI-PA025 [1] | MIC P. aeruginosa ATCC 27853 [2] | MIC, No Survanta [2] | MIC P. aeruginosa FADDI-PA038 [3] | MIC K. pneumoniae FADDI-KP065 [5] | MIC K. pneumoniae FADDI-KP032 [6] | viability at 24 h [7, 10] | viability at 24 h [7, 11] | viability at 24 h [7, 12] | viability at 24 h [7, 13] | viability at 24 h ([8]; Rep1) | viability at 24 h ([8]; Rep2) | viability at 24 h ([8]; Rep4) | also measured
CCCCCCCC(=O)N[C@@H](CCN)C(=O)N[C@H](C(=O)N[C@@H](CN)C(=O)N[C@H]1CCNC(=O)[C@H]([C@@H](C)O)NC(=O)[C@H](CCN)NC(=O)[C@H](CCN)NC(=O)[C@H](CC)NC(=O)[C@@H](CC(C)C)NC(=O)[C@H](CCN)NC1=O)[C@@H](C)O [Lipopeptide F287] (HELM PEPTIDE1{[CCCCCCCC(=O)[*:2]].[Dab].T.[NC[C@H](N[*:1])C(=O)[*:2]].[Dab].[Dab].[dL].[Abu].[Dab].[Dab].T}$PEPTIDE1,PEPTIDE1,5:R3-11:R2$$$V2.0) | 2 µg/mL (≈ 1.8 µM) | 0.5 µg/mL (≈ 0.449 µM) | 1 µg/mL (≈ 0.898 µM) | 0.5 µg/mL (≈ 0.449 µM) | <0.125 µg/mL | <0.125 µg/mL | 91.7% | 77.1% | 82.8% | 69.6% | 52% | 54.3% | 47% | MIC50 [4, 9]: 1 µg/mL (≈ 0.898 µM); MIC90 [4, 9]: 1 µg/mL (≈ 0.898 µM); Number of isolates ([4]; isolates with MIC 0.05 μg/mL (so in the source)): 0; Number of isolates ([4]; isolates with MIC 0.125 μg/mL (so in the source)): 0; Number of isolates ([4]; isolates with MIC 0.25 μg/mL (so in the source)): 7; Number of isolates ([4]; isolates with MIC 0.5 μg/mL (so in the source)): 26; Number of isolates ([4]; isolates with MIC 1 μg/mL (so in the source)): 168; Number of isolates ([4]; isolates with MIC 2 μg/mL (so in the source)): 9; Number of isolates ([4]; isolates with MIC 4 μg/mL (so in the source)): 0; Number of isolates ([4]; isolates with MIC 8 μg/mL (so in the source)): 1; Number of isolates ([4]; isolates with MIC 16 μg/mL (so in the source)): 0; Number of isolates ([4]; isolates with MIC 32 μg/mL (so in the source)): 2; Number of isolates ([4]; isolates with MIC 64 μg/mL (so in the source)): 0; Number of isolates ([4]; isolates with MIC >64 μg/mL (so in the source)): 0
CCCCCCCC(=O)N[C@@H](CCN)C(=O)N[C@H](C(=O)N[C@@H](CCN)C(=O)N[C@H]1CCNC(=O)[C@H]([C@@H](C)O)NC(=O)[C@H](CCN)NC(=O)[C@H](CCN)NC(=O)[C@H](CC)NC(=O)[C@@H](CC(C)C)NC(=O)[C@H](CCN)NC1=O)[C@@H](C)O [Lipopeptide F319] (HELM PEPTIDE1{[CCCCCCCC(=O)[*:2]].[Dab].T.[Dab].[Dab].[Dab].[dL].[Abu].[Dab].[Dab].T}$PEPTIDE1,PEPTIDE1,5:R3-11:R2$$$V2.0) | 4 µg/mL (≈ 3.55 µM) | 0.5 µg/mL (≈ 0.443 µM) | 1 µg/mL (≈ 0.887 µM) | 4 µg/mL (≈ 3.55 µM) | <0.125 µg/mL | 0.25 µg/mL (≈ 0.222 µM) | 104% | 95.5% | 91.1% | 92.6% | 79% | 79.1% | 70.1% | viability at 24 h ([8]; Rep3): 78.8%
